One series concerns 38C-13 tumor cells. In words: Inhibition of DNA synthesis ([3H]-methylthymidine incorporation). Conditions: Fig. 2. In kind it is cell-based, murine. On the procedure:
Inhibition of DNA synthesis by the free platinum compounds of their complexes was determined as follows. Tumor cells (2-5 x 10^4/0.1 ml) suspended in their suitable grwoth media were dispersed into wells of microtiter plates. The Platinum compounds or complexes were added to the cells in […] aliquots. The plates were incubated for 21 hr at 37 °C in a humidified atmosphere of 5% CO2 in air. At that time 10 µl containing 0.5 µci of [^3H]-methylthymidine were added to each well and the plates were incubated for 3 hr as above. The reaction was terminated using a Titerteck cell harvester.
Pt complexes used in the in vitro and in vivo experiments were prepared under conditions of maximal binding, that is, 98-100% binding of the free drugs. In vivo experiments were performed with cis-Pt and cis-aq complexes. […] Cis-Pt and cis-aq complexes of dex-NH2 were tested and found to be active in vitro against 5 murine tumors (EL-4, 38-C13, L1210, RDM and F-9) and 2 human derived tumors (Hela and Osteosarcoma). […] This activity was lost, however upon exhaustive dialysis.

For another series, the system named is tumors. Description: Activity against tumors in vivo (general statement). The note with it: uncomplexed salt.
In series [1] the test system is F-9 murine embryonal carcinoma cells. Description: In vivo suppression of F-9 embryonal carcinoma, I.P. tumor and I.P. treatment. Also on record: species or system Balb/c mice; effective dose (range): unit not given here. Conditions: for survival (average): free drug at optimal doses, one day after tumor. On the procedure: In vivo experiments were performed with F-9 murine embryonal carcinoma cells which were maintained in-vitro in DMEM supplemented with 10% fetal calf serum, glutamine and antibiotics, in gelatine (0.1%) coated culture flasks. In-vivo experiments were performed in female Balb/c mice at the age of 2-3 months.
In experiment I, 300,000 tumor cells were inoculated intraperitoneally (I.P.) into Balb/c mice.
The in vivo chemotherapeutic effect of the different complexes in comparison with free drugs was evaluated by the suppression of F9 embryonal carcinoma in Balb/c mice. […]

The nature of series [2]: Toxicity in tumor-free mice, single I.V. injection. In kind it is in vivo. Conditions: free drugs, ICR mice. On the procedure: Preliminary toxicity experiments with CM-dex and ?ex-NH2 complexes were performed to compare the toxicity of the free drugs and the complexes in tumor-free ICR mice. Pairs of mice were given a single I.V. injection of each of the drugs or drug complexes at a wide concentration range. Death of mice due to toxicity occurred between 1 to 7 days after injection. The results (Table 8) indicate the maximal non-toxic (none of the mice died) and the minimal toxic dose (death of both mice). […] The CM-dex T-40 of both drugs were also toxic although somewhat less than the free drugs, with no significant difference between the cis-Pt and cis-aq complexes. […] The dex-NH2 were also considerably less toxic than the free drugs.

The mark [3] stands for this setting: Exp. I: 300,000 tumor cells I.P., 50 µg, out of 5 TBM.
The mark [4] stands for this setting: Exp. II: 600,000 cells I.P., treatment 2 days after tumor, 60 µg.

For `[Cl][Pt-2]([Cl])([Cl])[Cl].[K+].[K+]` [K2PtCl4], the “fold less inhibitory than cis-Pt and cis-aq” value with 38C-13 tumor cells was 20 fold. Besides, the IC50 in the series with 38C-13 tumor cells (read-out: 50% inhibition of DNA synthesis, 21 hr at 37°C with drug, then 3 hr [3H]-methylthymidine pulse) turned out to be 20 µM. For the same compound, in the series with tumors, the “activity against tumors in vivo” value is “essentially inactive”.

`N.N.O.O.O=[N+]([O-])[O-].O=[N+]([O-])[O-].[Pt+2]` [cis-aq, diaquodiammine Platinum (II)-nitrate]: in series [1] (setting [3]), the “died of drug toxicity” value was 1, the “died of the tumor” value is 3 and the survived worked out at 1. In addition, in series [1] (setting [4]), the “non-protective against the tumor” value was 2/5 and the toxic is 3/5. Besides, the “effective dose (range)” value in series [1] (F9 tumor, single dose, Table 5) is 40. In series [1] (F9 tumor, Table 7), the “survival (average)” value was 60-80%. Also, the “toxicity at a slightly higher than optimal dose” value in series [1] (F9 tumor, free drug, Table 7) is recorded as “at least partially toxic”. In addition, the “toxicity compared with cis-Pt” value in series [2] is listed as “more toxic than cis-Pt”.

For the compound `N.N.[Cl][Pt][Cl]` [cis-Pt, Cis-dichlorodiammine Platinum (II)], the “died of the tumor” value in series [1] (Exp. I: 300,000 tumor cells I.P., 100 ug I.P. 1 day after tumor inoculation) was 1/5. Also, the “time of death of the tumor after receiving the tumor cells” value in series [1] (Exp. I: 300,000 tumor cells I.P., 100 ug I.P. day 1, the 1/5 mouse that died of tumor) is recorded as 54 days. Also, the “protective against the tumor” value in series [1] (setting [4]) is recorded as 4/5. Besides, the “survival (average)” value in series [1] (F9 tumor, Table 7) is recorded as 60-80%.
